# Laboratory results published in the Kinase Knowledgebase extract (Sharma et al. 2016).
# Experiments:
# EGFR (human) = EGFR (human) (UniProt P00533); conditions: a431
# EGFR = EGFR (UniProt P00533)
# Chain of EGFR (P00533 whole entry, looked up): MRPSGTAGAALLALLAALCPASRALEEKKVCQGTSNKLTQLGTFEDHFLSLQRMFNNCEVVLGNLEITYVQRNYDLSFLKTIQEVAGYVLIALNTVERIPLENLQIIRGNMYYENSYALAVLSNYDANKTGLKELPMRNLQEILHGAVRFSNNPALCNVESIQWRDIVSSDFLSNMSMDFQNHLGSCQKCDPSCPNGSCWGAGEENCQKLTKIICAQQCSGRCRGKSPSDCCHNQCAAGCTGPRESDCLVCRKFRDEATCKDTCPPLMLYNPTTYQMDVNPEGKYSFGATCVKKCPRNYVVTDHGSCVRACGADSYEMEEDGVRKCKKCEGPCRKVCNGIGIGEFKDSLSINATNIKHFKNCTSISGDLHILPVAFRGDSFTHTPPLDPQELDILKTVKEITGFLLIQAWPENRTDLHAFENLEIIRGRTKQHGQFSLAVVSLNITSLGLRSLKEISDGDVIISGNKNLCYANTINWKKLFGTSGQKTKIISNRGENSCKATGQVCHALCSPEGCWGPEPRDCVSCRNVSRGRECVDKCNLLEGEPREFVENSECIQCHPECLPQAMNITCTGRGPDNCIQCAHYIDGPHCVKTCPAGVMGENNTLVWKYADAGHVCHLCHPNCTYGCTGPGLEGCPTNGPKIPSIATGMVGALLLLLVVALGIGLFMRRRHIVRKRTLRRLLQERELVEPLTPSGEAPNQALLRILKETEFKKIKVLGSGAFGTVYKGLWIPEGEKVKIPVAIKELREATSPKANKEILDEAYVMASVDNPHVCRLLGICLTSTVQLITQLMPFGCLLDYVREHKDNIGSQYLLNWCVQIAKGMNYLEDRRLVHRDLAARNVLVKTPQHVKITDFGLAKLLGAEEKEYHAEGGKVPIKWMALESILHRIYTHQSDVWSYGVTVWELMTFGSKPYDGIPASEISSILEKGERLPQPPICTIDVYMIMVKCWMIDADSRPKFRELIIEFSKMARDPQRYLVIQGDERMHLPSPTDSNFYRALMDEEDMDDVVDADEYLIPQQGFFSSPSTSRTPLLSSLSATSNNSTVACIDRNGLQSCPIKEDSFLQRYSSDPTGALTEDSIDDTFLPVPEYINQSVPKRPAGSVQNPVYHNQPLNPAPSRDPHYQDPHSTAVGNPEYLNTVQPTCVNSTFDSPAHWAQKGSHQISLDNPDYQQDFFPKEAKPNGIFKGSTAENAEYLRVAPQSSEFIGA
# Chain of EGFR (human) (P00533 whole entry, looked up): as above
Structure (SMILES),IC50 (EGFR (human)) [µg/mL],IC50 (EGFR) [µg/mL]
COCCN(C)C/C=C/C(=O)Nc1cc2c(Nc3ccc(Sc4nccs4)c(Cl)c3)c(C#N)cnc2cc1OC,0.03,
CCOc1cc2ncc(C#N)c(Nc3ccc(Cn4ccnc4)c(Cl)c3)c2cc1NC(=O)/C=C/CN(C)C,0.95,
CCOc1cc2ncc(C#N)c(Nc3ccc(Sc4nc(C)cc(C)n4)c(Cl)c3)c2cc1NC(=O)/C=C/CN(C)C,0.24,
COc1cc2ncc(C#N)c(Nc3ccc(Sc4nccs4)c(Cl)c3)c2cc1NC(=O)/C=C/CN(C)C,0.017,
COCCOc1cc2ncc(C#N)c(Nc3ccc4cn[nH]c4c3)c2cc1OCCOC,1.96,
COc1cc2ncc(C#N)c(Nc3ccc(-n4ccnc4)c(Cl)c3)c2cc1NC(=O)/C=C/CN(C)C,0.51,
COc1cc2ncc(C#N)c(Nc3ccc(Sc4nc(-c5ccccc5)cs4)c(Cl)c3)c2cc1NC(=O)/C=C/CN(C)C,0.162,
CCOc1cc2ncc(C#N)c(Nc3ccc(Sc4nccc(C)n4)c(Cl)c3)c2cc1[N+](=O)[O-],1.2,
CCOc1cc2ncc(C#N)c(Nc3ccc(Sc4nc(-c5ccccc5)cs4)c(C(F)(F)F)c3)c2cc1N,> 5,
CCOc1cc2ncc(C#N)c(Nc3ccc(Sc4nc(C)cc(C)n4)c(Cl)c3)c2cc1[N+](=O)[O-],> 5,
CCOc1cc2ncc(C#N)c(Nc3ccc(OCc4ccccc4)c(Cl)c3)c2cc1NC(=O)/C=C/CN(C)C,0.062,0.028
COc1cc2ncc(C#N)c(Nc3ccc(Sc4nccs4)c(Cl)c3)c2cc1N,0.663,
CCOc1cc2ncc(C#N)c(Nc3ccc4c(c3)S(=O)(=O)C=C4)c2cc1OCC,0.257,
COc1cc2ncc(C#N)c(Nc3ccc(Sc4nc5ccccc5c(=O)[nH]4)c(Cl)c3)c2cc1N,1.22,
COc1ccc2c(N(c3ccc(N(Cc4cccnc4)C(C)=O)c(Cl)c3)c3ccc(Nc4c(C#N)cnc5cc(OC)c(NC(C)=O)cc45)cc3Cl)c(C#N)cnc2c1,3.68,
CCOc1cc2ncc(C#N)c(Nc3ccc(OCc4cccc(F)c4)c(Cl)c3)c2cc1NC(=O)/C=C/CN(C)C,,0.019
CCOc1cc2ncc(C#N)c(Nc3ccc(Cn4ccnc4)c(Cl)c3)c2cc1N,> 5,
CCOc1cc2ncc(C#N)c(Nc3ccc(Sc4nc(-c5ccccc5)cs4)c(C(F)(F)F)c3)c2cc1[N+](=O)[O-],0.76,
CCOc1cc2ncc(C#N)c(Nc3ccc4cc[nH]c4c3)c2cc1OCC,0.123,
CCOc1cc2ncc(C#N)c(Nc3ccc(Oc4ccncc4)c(Cl)c3)c2cc1N,> 5,
CCOc1cc2ncc(C#N)c(Nc3ccc(Nc4nnc(C(F)(F)F)s4)c(Cl)c3)c2cc1N,> 5,
CCOc1cc2ncc(C#N)c(Nc3ccc4c(c3)CCC4)c2cc1OCC,0.342,
COc1cc2ncc(C#N)c(Nc3ccc(-n4ccnc4)c(Cl)c3)c2cc1[N+](=O)[O-],1.79,

Structure (SMILES),IC50 (EGFR (human)) [µg/mL],IC50 (EGFR) [µg/mL]
COc1cc2ncc(C#N)c(Nc3ccc(N(c4ccc(N(Cc5cccnc5)C(C)=O)c(Cl)c4)c4c(OC)cnc5ccccc45)c(Cl)c3)c2cc1N,> 5,
COc1cc2ncc(C#N)c(Nc3ccc(Sc4nccn4C)c(Cl)c3)c2cc1N,3.04,
COc1cc2ncc(C#N)c(Nc3ccc(Sc4nccs4)c(Cl)c3)c2cc1[N+](=O)[O-],0.148,
CCOc1cc2c(Nc3ccc4cn[nH]c4c3)c(C#N)cnc2cc1OC,0.786,
CCOc1cc2ncc(C#N)c(Nc3cc(Cl)c(Nc4nncs4)c(C(F)(F)F)c3)c2cc1NC(=O)/C=C/CN(C)C,0.728,
COc1cc2nc(Sc3ccc(Nc4c(C#N)cnc5cc(OC)c([N+](=O)[O-])cc45)cc3Cl)[nH]c(=O)c2cc1O,2.28,
COc1cc2ncc(C#N)c(Nc3ccc(NCc4cccnc4)c(Cl)c3)c2cc1[N+](=O)[O-],1.6,
CCOc1cc2ncc(C#N)c(Nc3ccc(Cn4ccnc4)c(Cl)c3)c2cc1[N+](=O)[O-],> 5,
COc1cc2ncc(C#N)c(Nc3ccc(Sc4nc5ccccc5c(=O)[nH]4)c(Cl)c3)c2cc1NC(=O)/C=C/CN(C)C,0.34,
COc1cc2c(Nc3ccc(Sc4nccn4C)c(Cl)c3)c(C#N)cnc2cc1OCCCN1CCOCC1,0.775,
CCOc1cc2ncc(C#N)c(Nc3ccc4cn[nH]c4c3)c2cc1OC,0.0368,
COc1cc2ncc(C#N)c(Nc3ccc(Sc4nccn4C)c(Cl)c3)c2cc1[N+](=O)[O-],2.88,
CCOc1cc2ncc(C#N)c(Nc3ccc4c(c3)OCCO4)c2cc1OCC,0.27,
COc1cc2ncc(C#N)c(Nc3ccc(N(Cc4cccnc4)C(C)=O)c(Cl)c3)c2cc1NC(=O)/C=C/CN(C)C,0.646,
C=CC(=O)Nc1ccc2ncc(C#N)c(Nc3ccc(Sc4nccn4C)c(Cl)c3)c2c1,0.62,
CCOc1cc2ncc(C#N)c(Nc3cc(Cl)c(Nc4nncs4)c(C(F)(F)F)c3)c2cc1[N+](=O)[O-],1.79,
CCOc1cc2ncc(C#N)c(Nc3ccc(Sc4nc(C)cc(C)n4)c(Cl)c3)c2cc1N,0.76,
CCOc1cc2ncc(C#N)c(Nc3ccc(Sc4nccc(C)n4)c(Cl)c3)c2cc1N,1.53,
COc1cc2ncc(C#N)c(Nc3ccc4cn[nH]c4c3)c2cc1OCCCN1CCOCC1,> 5,
COc1cc2c(Nc3ccc(Sc4nccn4C)c(Cl)c3)c(C#N)cnc2cc1OCCCn1ccnn1,1.83,
CCOc1cc2ncc(C#N)c(Nc3ccc(Oc4ccncc4)c(Cl)c3)c2cc1[N+](=O)[O-],> 5,
CCOc1cc2ncc(C#N)c(Nc3ccc4c(c3)CCC4=O)c2cc1OCC,0.0181,
